ChEMBL document CHEMBL1201862, “PubChem BioAssay data set” (2004)
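Cultured in 96-well plates, cells were exposed to test compound for 48 hours across five concentrations. GI50 is the concentration that inhibits growth by half.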 Calls of active or inactive are those of the source. No stated cut-off is given here; in the data, active = GI50 up to about 1.1 µM and inactive = higher.

Key:
Assay in all cases: NCI tumour cell line growth inhibition, 48 h
[1] = system: RXF 631
[2] = system: DLD-1
[3] = system: M19-MEL
[4] = system: SNB-78
[5] = system: DMS-114
[6] = system: KM-20L2
[7] = system: DMS-273
[8] = system: MDA-N
[9] = system: XF498

Row | Compound | GI50 [1] | GI50 [2] | GI50 [3] | GI50 [4] | GI50 [5] | GI50 [6] | GI50 [7] | GI50 [8] | GI50 [9]
1 | CC(C)(C)C1(O)Cc2ccccc2C(=O)O1 (configuration not stated) | > 100 µM (inactive) | > 100 µM (inactive) | > 100 µM (inactive) | > 100 µM (inactive) | > 100 µM (inactive) | > 100 µM (inactive) | > 100 µM (inactive) | – | –
2 | C(/C=C/N1CCCC1)=C\c1nc(N2CCCC2)c2ccccc2n1 | 7.73 µM (inactive) | 18.7 µM (inactive) | 17 µM (inactive) | 20.7 µM (inactive) | 18.5 µM (inactive) | 24.9 µM (inactive) | 18.4 µM (inactive) | – | –
3 | COC(=O)c1ccc2c(c1)C(NC(C)=O)CCc1cc(OC)c(OC)c(OC)c1-2 (configuration not stated) | 0.014 µM (active) | 0.0173 µM (active) | 0.0235 µM (active) | < 0.0152 µM (active) | < 0.0126 µM (active) | 0.0118 µM (active) | < 0.01 µM (active) | 0.0113 µM (active) | 0.06 µM (active)
4 | C/C=C/C=N/N(c1nnc(-c2ccccc2)c(-c2ccccc2)n1)S(=O)(=O)c1ccc(C)cc1 | 17.5 µM (inactive) | 5.05 µM (inactive) | 13.2 µM (inactive) | 15.3 µM (inactive) | 13 µM (inactive) | 13.2 µM (inactive) | 11.1 µM (inactive) | – | –
5 | CC(C)(C)OC(=O)Cc1ccc2c(ccn2Cc2ccccc2)c1 | 25.9 µM (inactive) | 57.3 µM (inactive) | 62.4 µM (inactive) | > 100 µM (inactive) | 18.7 µM (inactive) | 26.3 µM (inactive) | 48 µM (inactive) | – | –
6 | Cn1c2c(c3ccccc31)CCN(CCCCN1CCN(c3cccc(Cl)c3)CC1)C2=O | – | 10.6 µM (inactive) | 11.5 µM (inactive) | 2.88 µM (inactive) | 1.67 µM (inactive) | 4.17 µM (inactive) | 9.06 µM (inactive) | – | 14.4 µM (inactive)
7 | COc1ccc(C2(Cl)C(Cl)(C(F)(F)F)C2(Cl)C(F)(F)F)cc1 (configuration not stated) | 15.2 µM (inactive) | 15.7 µM (inactive) | 13.6 µM (inactive) | 14.7 µM (inactive) | 12.5 µM (inactive) | 15.6 µM (inactive) | 14.3 µM (inactive) | – | 12.9 µM (inactive)
8 | CCOC(=O)c1c(C(F)(F)F)oc2c1ccc1nc3nonc3nc12 | 19 µM (inactive) | 14.3 µM (inactive) | 18.6 µM (inactive) | 14.7 µM (inactive) | 23.7 µM (inactive) | 18.2 µM (inactive) | 19.1 µM (inactive) | – | 17 µM (inactive)
9 | CC(=O)OC1CC(n2cc(F)c(=O)[nH]c2=O)OC1CO (configuration not stated) | – | 28.8 µM (inactive) | > 100 µM (inactive) | > 100 µM (inactive) | 1.36 µM (inactive) | 0.962 µM (active) | 0.331 µM (active) | 24.3 µM (inactive) | 13.7 µM (inactive)
10 | CC(C)=C1CCC(CN(C)C)C1=O (configuration not stated) | 13.6 µM (inactive) | 6.85 µM (inactive) | 47.2 µM (inactive) | > 10 µM (inactive) | 16.5 µM (inactive) | 13.7 µM (inactive) | – | – | –
11 | CCCCC1CC(c2cccc([N+](=O)[O-])c2)=NO1 (configuration not stated) | 80.7 µM (inactive) | > 100 µM (inactive) | 74.6 µM (inactive) | > 100 µM (inactive) | 40.6 µM (inactive) | > 100 µM (inactive) | > 100 µM (inactive) | – | –
12 | C=C(C)C1CC[C@]2(C(=O)O)CCC3(C)[C@H](CCC4[C@@]5(C)CC[C@H](OC6OC(CO)C(O)C6OC6OC(C)C(O)C(O)C6O)[C@@](C)(CO)C5CC[C@]43C)C12 (some centres not stated) | > 100 µM (inactive) | 33.9 µM (inactive) | > 100 µM (inactive) | > 100 µM (inactive) | > 100 µM (inactive) | > 100 µM (inactive) | > 100 µM (inactive) | – | > 100 µM (inactive)
13 | COC(=O)C1C=NNC1C(=O)OC (configuration not stated) | > 100 µM (inactive) | – | > 100 µM (inactive) | > 100 µM (inactive) | > 100 µM (inactive) | > 100 µM (inactive) | > 100 µM (inactive) | – | > 100 µM (inactive)
14 | O=C(O)CCC1CCc2cccc(OCC(=O)O)c2C1=O (configuration not stated) | – | > 100 µM (inactive) | > 100 µM (inactive) | > 100 µM (inactive) | > 100 µM (inactive) | > 100 µM (inactive) | > 100 µM (inactive) | – | > 100 µM (inactive)
15 | Cc1cc(NS(=O)(=O)c2ccc(NC(=O)c3ccc(Cl)c4c(Nc5ccc(S(=O)(=O)Nc6cc(C)on6)cc5)c5ccccc5nc34)cc2)no1 | – | > 10 µM (inactive) | 22.9 µM (inactive) | 36.1 µM (inactive) | 18.5 µM (inactive) | 21.5 µM (inactive) | 22.5 µM (inactive) | – | 31.8 µM (inactive)
16 | O=C(/C=C/c1ccccc1O)c1cccnc1 | > 100 µM (inactive) | > 100 µM (inactive) | > 100 µM (inactive) | > 100 µM (inactive) | – | > 100 µM (inactive) | > 100 µM (inactive) | – | > 100 µM (inactive)
17 | O=S(=O)(O)c1ccc(-c2c3nc(c(-c4ccc(S(=O)(=O)O)cc4)c4ccc([nH]4)c(-c4ccc(S(=O)(=O)O)cc4)c4nc(c(-c5ccc(S(=O)(=O)O)cc5)c5ccc2[nH]5)C=C4)C=C3)cc1 | 80.9 µM (inactive) | > 100 µM (inactive) | > 100 µM (inactive) | 44.6 µM (inactive) | 40.2 µM (inactive) | > 100 µM (inactive) | 95.5 µM (inactive) | – | > 100 µM (inactive)
18 | CCc1cccc(C)c1NC(=O)CC1Sc2ccccc2NC1=O (configuration not stated) | 35.8 µM (inactive) | 28.4 µM (inactive) | 45.4 µM (inactive) | 34.4 µM (inactive) | 57.3 µM (inactive) | 46.5 µM (inactive) | 48.9 µM (inactive) | – | 72.9 µM (inactive)
19 | C1CC2=C(C1)C1=S(S2)SC2=C1CCC2 | > 100 µM (inactive) | > 100 µM (inactive) | > 100 µM (inactive) | > 100 µM (inactive) | > 100 µM (inactive) | > 100 µM (inactive) | > 100 µM (inactive) | – | –
20 | Oc1nc(S)nc2c1CCCN2 | > 100 µM (inactive) | > 100 µM (inactive) | > 100 µM (inactive) | > 100 µM (inactive) | > 100 µM (inactive) | – | – | – | –
21 | COc1ccc2c(c1)CC1c3c(cc4c(c3-2)OCO4)CCN1C (configuration not stated) | 24.5 µM (inactive) | 41.9 µM (inactive) | 21.4 µM (inactive) | 40.7 µM (inactive) | 24.3 µM (inactive) | 30.8 µM (inactive) | 25.7 µM (inactive) | – | 27.7 µM (inactive)
22 | COC(=O)NC1C(C)OC(OC2C/C=C(/C)C3C=CC4C(OC5CC(OC6CCC(OC7CC(O)C(OC8CCC(O)C(C)O8)C(C)O7)C(C)O6)C(OC(C)=O)C(C)O5)C(C)CC(C)C4C3(C)/C(O)=C3/C(=O)OC4(CC(C=O)=CC(O)C4/C=C\2C)C3=O)CC1(C)[N+](=O)[O-] (configuration not stated) | 0.603 µM (active) | 2.45 µM (inactive) | 0.367 µM (active) | 1.82 µM (inactive) | 0.385 µM (active) | 1.29 µM (inactive) | 1.27 µM (inactive) | 0.661 µM (active) | 0.261 µM (active)
